From patent US11820773B2, “Tricyclic compounds” (ALIGOS THERAPEUTICS, INC., priority 2020, dated 2023)
pEC50: −log10 of the molar value.

These compounds were tested on HBV (assay: HBV-DNA antiviral assay using HepG2.117 cells (intracellular HBV DNA by qPCR)). Conditions: HBV DNA inhibition, 3 days incubation, 2% DMSO.
Type: cell-based, genotype D HBV
Method: The following assay procedure describes the HBV antiviral assay, using HepG2.117 cells, which carry a stably integrated genotype D HBV genome under the control of a Tet-off promoter, and intracellular HBV DNA quantification as endpoint. Cell viability is assessed in parallel by measuring the intracellular ATP content using CellTiter-Glo 2.0 (Promega).
On day 0, HepG2.117 cells (which are maintained in routine cell culture with doxycycline present in the medium at a final concentration of 1 μg/mL) were seeded in 96-well plates (white with clear bottom) at a density of 2.0×10^4 cells/well (0.1 mL/well) in medium without doxycycline to induce pgRNA transcription and subsequent formation of HBV particles. The cells were incubated at 37° C. and 5% CO2.
On day 1, medium was removed from each well, the test articles were diluted in culture medium without doxcycyline and 100 μL was added to cell culture wells (9 concentrations, 4-fold dilution). For each plate, 6 untreated (merely DMSO) wells were included. The final concentration of DMSO in the culture medium was 2%. Each plate was prepared in duplicate (one for HBV DNA extraction, one for CellTiter-Glo 2.0 measurement). The cells were incubated at 37° C. and 5% CO2 for 3 days.
On day 4, cell viability was assessed using CellTiter-Glo 2.0 and cell lysates were prepared for HBV DNA extraction and subsequent quantification by qPCR.
HBV DNA Quantification by qPCR
Medium was removed from each well and 100 μL of 0.33% NP-40 in H2O was added to each well. Plates were sealed, incubated at 4° C. for 5 mins, vortexed extensively and centrifuged briefly. Next, 35 μL of lysate was added to 65 μL QuickExtract DNA Extraction Solution (Epicentre) in a PCR plate for each well. PCR plate was incubated at 65° C. for 6 mins, 98° C. for 2 mins and finally cooled to 4° C. HBV DNA was then quantified by qPCR with HBV-specific primers and probes as specified in Table 1 using the Bio-Rad SSOAdvanced Universal Probes Supermix on a CFX96 machine (Bio-Rad). The PCR cycle program consisted of 95° C. for 3 mins, followed by 40 cycles at 95° C. for 10 sec and 60° C. for 30 sec.
A DNA standard was prepared by dilution of an IDT gBlock corresponding to the amplicon with concentrations ranging from 10^2 to 10^8 copies/input (i.e. per 4 μL) and used to generate a standard curve by plotting Cq values vs. HBV DNA standard concentration. The quantity of HBV DNA in each sample was determined by interpolating from the standard curve.
Cell viability was calculated as follows: % Cell viability=(luminescence value of test sample)/(average luminescence value of 2% DMSO control)×100%. HBV DNA inhibition was calculated as follows: 100−(HBV DNA copy number of test sample)/(average HBV DNA copy number of 2% DMSO control)×100%. No normalization to entecavir was required due to the excellent dynamic window of this assay. The CC50, EC50 and EC90 values were determined by dose-response curves fitted by GraphPad Prism using “log (agonist) vs. response—Variable slope”.

| SMILES | pEC50 |
| --- | --- |
| Cn1cnnc1-c1ccc(-n2c(=O)c3c(n4ncc(Cc5ccccc5)c24)CN(C(=O)c2ccc(Br)c(Cl)c2)CC3)cc1 [Compound 9, 5-benzyl-12-(4-bromo-3-chloro-benzoyl)-7-[4-(4-methyl-1,2,4-triazol-3-yl)phenyl]-2,3,7,12-tetrazatricyclo[7.4.0.0^2,6]trideca-1(9),3,5-trien-8-one] | > 7.30 |

Same assay, conditions: Hepatitis B virus, 72 h, HBV DNA inhibition, 3 days incubation, 2% DMSO

| SMILES | pEC50 |
| --- | --- |
| C[C@H]1Cc2c(n3ncc(Cc4ccccc4)c3n(-c3ccc4c(c3)nnn4C)c2=O)CN1C(=O)c1ccc(Br)c(C(F)(F)F)c1 (stereo in doubt) [Compound 72b, rac-(11S)-5-benzyl-12-[4-bromo-3-(trifluoromethyl)benzoyl]-11-methyl-7-(1-methylbenzotriazol-5-yl)-2,3,7,12-tetrazatricyclo[7.4.0.0^2,6]trideca-1(9),3,5-trien-8-one] | > 7.30 |
| CNC(=O)c1cnc(-n2c(=O)c3c(n4ncc(CC(C)C)c24)CN(C(=O)c2ccc(Br)c(C(F)(F)F)c2)[C@H](C)C3)nc1 (stereo in doubt) [Compound 85a, N-methyl-2-[rac-(11R)-12-[4-bromo-3-(trifluoromethyl)benzoyl]-5-isobutyl-11-methyl-8-oxo-2,3,7,12-tetrazatricyclo[7.4.0.0^2,6]trideca-1(9),3,5-trien-7-yl]pyrimidine-5-carboxamide] | > 7.30 |
| CCC[C@@H]1Cc2c(n3ncc(Cc4ccccc4)c3n(-c3ccc4c(NC)n[nH]c4c3)c2=O)CN1C(=O)c1ccc(Br)c(C(F)(F)F)c1 (stereo in doubt) [Compound 88a, rac-(11R)-5-benzyl-12-[4-bromo-3-(trifluoromethyl)benzoyl]-7-[3-(methylamino)-1H-indazol-6-yl]-11-propyl-2,3,7,12-tetrazatricyclo[7.4.0.0^2,6]trideca-1(9),3,5-trien-8-one] | > 7.30 |
| CNC(=O)c1ccc(-n2c(=O)c3c(n4ncc(Cc5ccccc5)c24)CN(C(=O)c2ccc(Br)c(C(F)(F)F)c2)[C@@H](C2CC2)C3)cc1 (stereo in doubt) [Compound 104a, N-methyl-4-[rac-(11R)-5-benzyl-12-[4-bromo-3-(trifluoromethyl)benzoyl]-11-cyclopropyl-8-oxo-2,3,7,12-tetrazatricyclo[7.4.0.0^2,6]trideca-1(9),3,5-trien-7-yl]benzamide] | > 7.30 |
| CNC(=O)c1cnc(-n2c(=O)c3c(n4ncc(CC(C)C)c24)CN(C(=O)c2ccc(Br)c(C(F)(F)F)c2)[C@H](C)C3)cn1 (stereo in doubt) [Compound 89a, N-methyl-5-[rac-(11R)-12-[4-bromo-3-(trifluoromethyl)benzoyl]-5-isobutyl-11-methyl-8-oxo-2,3,7,12-tetrazatricyclo[7.4.0.0^2,6]trideca-1(9),3,5-trien-7-yl]pyrazine-2-carboxamide] | > 7.30 |
| Cc1ncnn1-c1ccc(-n2c(=O)c3c(n4ncc(Cc5ccccc5)c24)CN(C(=O)c2ccc(Br)c(C(F)(F)F)c2)CC3)cc1 [Compound 36, 5-benzyl-12-[4-bromo-3-(trifluoromethyl)benzoyl]-7-[4-(5-methyl-1,2,4-triazol-1-yl)phenyl]-2,3,7,12-tetrazatricyclo[7.4.0.0^2,6]trideca-1(9),3,5-trien-8-one] | > 7.30 |
| CNc1nnc2cc(-n3c(=O)c4c(n5ncc(Cc6ccccc6)c35)CN(C(=O)c3ccc(Br)c(Cl)c3)CC4)ccn12 [Compound 23, 5-benzyl-12-(4-bromo-3-chloro-benzoyl)-7-[3-(methylamino)-[1,2,4]triazolo[4,3-a]pyridin-7-yl]-2,3,7,12-tetrazatricyclo[7.4.0.0^2,6]trideca-1(9),3,5-trien-8-one] | > 7.30 |
| C[C@@H]1Cc2c(n3ncc(CC4CCC4)c3n(-c3ccc(-c4nncn4C)cc3)c2=O)CN1C(=O)c1ccc(Br)c(C(F)(F)F)c1 (stereo in doubt) [Compound 45a, rac-(11R)-12-[4-bromo-3-(trifluoromethyl)benzoyl]-5-(cyclobutylmethyl)-11-methyl-7-[4-(4-methyl-1,2,4-triazol-3-yl)phenyl]-2,3,7,12-tetrazatricyclo[7.4.0.0^2,6]trideca-1(9),3,5-trien-8-one] | > 7.30 |
| CC(C)Cc1cnn2c3c(c(=O)n(-c4ccc5c(c4)nnn5C)c12)C[C@H](C)N(C(=O)c1ccc(Br)c(C(F)(F)F)c1)C3 (stereo in doubt) [Compound 95b, rac-(11S)-12-[4-bromo-3-(trifluoromethyl)benzoyl]-5-isobutyl-11-methyl-7-(1-methylbenzotriazol-5-yl)-2,3,7,12-tetrazatricyclo[7.4.0.0^2,6]trideca-1(9),3,5-trien-8-one] | 6.30 to 7.30 |
| Cc1ccn(-c2ccc(-n3c(=O)c4c(n5ncc(CC(C)C)c35)CN(C(=O)c3ccc(Br)c(C(F)(F)F)c3)[C@H](C)C4)cc2)n1 (stereo in doubt) [Compound 100a, rac-(11R)-12-[4-bromo-3-(trifluoromethyl)benzoyl]-5-isobutyl-11-methyl-7-[4-(3-methylpyrazol-1-yl)phenyl]-2,3,7,12-tetrazatricyclo[7.4.0.0^2,6]trideca-1(9),3,5-trien-8-one] | > 7.30 |
| Cc1cnn(-c2ccc(-n3c(=O)c4c(n5ncc(Cc6ccccc6)c35)CN(C(=O)c3ccc(Br)c(C(F)(F)F)c3)[C@@H](C)C4)cc2)n1 (stereo in doubt) [Compound 79b, rac-(11S)-5-benzyl-12-[4-bromo-3-(trifluoromethyl)benzoyl]-11-methyl-7-[4-(4-methyltriazol-2-yl)phenyl]-2,3,7,12-tetrazatricyclo[7.4.0.0^2,6]trideca-1(9),3,5-trien-8-one] | 6.30 to 7.30 |
| C[C@@H]1Cc2c(n3ncc(CC4CC4)c3n(-c3ccc(-c4nncn4C)cc3)c2=O)CN1C(=O)c1ccc(Br)c(C(F)(F)F)c1 (stereo in doubt) [Compound 40a, rac-(11R)-12-[4-bromo-3-(trifluoromethyl)benzoyl]-5-(cyclopropylmethyl)-11-methyl-7-[4-(4-methyl-1,2,4-triazol-3-yl)phenyl]-2,3,7,12-tetrazatricyclo[7.4.0.0^2,6]trideca-1(9),3,5-trien-8-one] | > 7.30 |
| C[C@H]1Cc2c(n3ncc(Cc4ccccc4)c3n(-c3ccc(-c4noc(=O)n4C)cc3)c2=O)CN1C(=O)c1ccc(Br)c(C(F)(F)F)c1 (stereo in doubt) [Compound 41b, 4-methyl-3-[4-[rac-(11S)-5-benzyl-12-[4-bromo-3-(trifluoromethyl)benzoyl]-11-methyl-8-oxo-2,3,7,12-tetrazatricyclo[7.4.0.0^2,6]trideca-1(9),3,5-trien-7-yl]phenyl]-1,2,4-oxadiazol-5-one] | 6.30 to 7.30 |
| CNC(=O)c1ccc(-n2c(=O)c3c(n4ncc(CC5CC5)c24)CN(C(=O)c2ccc(Br)c(C(F)(F)F)c2)CC3)cc1 [Compound 24, 4-[12-[4-bromo-3-(trifluoromethyl)benzoyl]-5-(cyclopropylmethyl)-8-oxo-2,3,7,12-tetrazatricyclo[7.4.0.0^2,6]trideca-1(9),3,5-trien-7-yl]-N-methyl-benzamide] | > 7.30 |
| CNc1n[nH]c2cc(-n3c(=O)c4c(n5ncc(Cc6ccccc6)c35)CN(C(=O)c3ccc(Br)c(C(F)(F)F)c3)[C@H](C)C4)ccc12 (stereo in doubt) [Compound 43a, rac-(11R)-5-benzyl-12-[4-bromo-3-(trifluoromethyl)benzoyl]-11-methyl-7-[3-(methylamino)-1H-indazol-6-yl]-2,3,7,12-tetrazatricyclo[7.4.0.0^2,6]trideca-1(9),3,5-trien-8-one] | > 7.30 |
| C#CCc1cnn2c3c(c(=O)n(-c4ccc(C(=O)NC)cc4)c12)CCN(C(=O)c1ccc(Br)c(C(F)(F)F)c1)C3 [Compound 42, 4-[12-[4-bromo-3-(trifluoromethyl)benzoyl]-8-oxo-5-prop-2-ynyl-2,3,7,12-tetrazatricyclo[7.4.0.0^2,6]trideca-1(9),3,5-trien-7-yl]-N-methyl-benzamide] | > 7.30 |
| CC(C)Cc1cnn2c3c(c(=O)n(-c4ccc5c(c4)nnn5CCO)c12)C[C@H](C)N(C(=O)c1ccc(Br)c(C(F)(F)F)c1)C3 (stereo in doubt) [Compound 108b, rac-(11S)-12-[4-bromo-3-(trifluoromethyl)benzoyl]-7-[1-(2-hydroxyethyl)benzotriazol-5-yl]-5-isobutyl-11-methyl-2,3,7,12-tetrazatricyclo[7.4.0.0^2,6]trideca-1(9),3,5-trien-8-one] | 6.30 to 7.30 |
